Results on two compounds are retold here after publication PMC4104029, “Mechanism of Action of Compound-13: An α1-Selective Small Molecule Activator of AMPK” (Chemistry & Biology, 2014).

Test [1] relates to LKB1−/− mouse embryonic fibroblasts. In words: AMPK and ACC phosphorylation in LKB1-null fibroblasts. Particulars: 1 hr; AICAR 2 mM. The test is classed as cell-based. How it is done:
AICAR (0.5 mM) was included as a positive control. Cell lysates were analyzed using western blotting with the indicated antibodies. (B) AMPKα1 or AMPKα2 complexes were immunoprecipitated from hepatocyte extracts prepared as described in (A) and assayed for kinase activity using 0.2 mM AMARA and 0.1 mM ATP. Results are expressed as the mean Pi incorporated in picomoles per minute-milligram ± SD. (C) Hepatocytes were stimulated with 30 μM C13 for the indicated times prior to harvesting, with AICAR (0.5 mM, 1 hr) as positive control. Lysates were analyzed using western blotting with the indicated antibodies. (D) Mouse hepatocytes were treated with the indicated compounds for 1 hr, and adenine nucleotide ratios were determined using capillary electrophoresis of perchloric acid extracts. […] Lysates were analyzed using western blotting with the indicated antibodies. (F) Wild-type (LKB1^+/+) or LKB1-null (LKB1^−/−) mouse embryonic fibroblasts were incubated with the indicated concentrations of C13 for 1 hr. AICAR (2 mM) was included as a positive control. Lysates were analyzed using western blotting with the indicated antibodies.

In test [2] the test system is AMPK-KO (AMPKα1−/− -α2−/−) hepatocytes. As to the kind of experiment: Lipid synthesis, [1-14C]acetate incorporation. The class given is cell-based, mouse. Here is the method:
Figure 5 C13 Inhibits Lipid Synthesis and Fatty Acid Esterification in Mouse Hepatocytes in an AMPK-Dependent Manner (A) Mouse hepatocytes were treated with the indicated concentrations of C13 and labeled with [1-^14C]acetate for 3 hr. A769662 (100 μM) and AICAR (0.5 mM) were included as positive controls. Rates of fatty acid and sterol synthesis were estimated by incorporation into saponifiable and nonsaponifiable lipids. Results are expressed as the mean acetate incorporated in micromoles per gram-hour ± SD and are representative of two independent experiments. […] Incorporation into triglyceride was determined as described in Experimental Procedures and results are expressed as palmitate incorporated in micromoles per gram-hour ± SD and are representative of three independent experiments. […] Results are expressed as percentage WT vehicle and represent the mean ± SD for three independent experiments. […]
Lipid synthesis was determined by labeling adherent cultures of primary hepatocytes with [1-^14C]acetate. […] Lipogenesis in hepatocytes from AMPKβ1/β2-KO mice was determined in media containing [^3H]acetate (0.2 mCi⋅mmol^−1). After 4 hr labeling, total lipids were extracted using the method of [Bligh and Dyer (1959)], and incorporated [^3H] was determined by scintillation counting. The results are expressed as micromoles acetate incorporated per gram-hour.

The next test concerns human AMPK. The arrangement: method as in Gómez-Galeno et al., 2010. Particulars: isoform combination not specified; ref Gómez-Galeno et al., 2010; read-out: half-maximal effective concentration (EC50); cited from earlier work.

Take `CC(C)C(=O)OCOP(=O)(OCOC(=O)C(C)C)c1ccc(C2=NOC(=O)C2)o1` [Compound C13]: the “compound-induced phosphorylation of AMPK and ACC” value in test [1] is “abolished”. For the same compound, the anti-lipogenic effect entry in test [2] is “resistant”. Moreover, the impairment of lipogenesis entry in test [2] (highest concentrations of C13) is “≈ 20%”.

Turning to `O=P(O)(O)c1ccc(-c2cc(O)on2)o1` [Compound C2, 5-(5-hydroxyl-isoxazol-3-yl)-furan-2-phosphonic acid], the EC50 with human AMPK is 6.3 nM.
